Experimental data: patent US7338776B2, “Production of UGPPase” (JCR Pharmaceuticals Co., Ltd., priority 2002, dated 2008)

T1: human UGPPase (Homo sapiens, UniProt O95848)
T1 construct: made in house; host or cells: E. coli AD494(DE3), plasmid pET11a-AAD15563.1
T1 sequence (O95848 1-222): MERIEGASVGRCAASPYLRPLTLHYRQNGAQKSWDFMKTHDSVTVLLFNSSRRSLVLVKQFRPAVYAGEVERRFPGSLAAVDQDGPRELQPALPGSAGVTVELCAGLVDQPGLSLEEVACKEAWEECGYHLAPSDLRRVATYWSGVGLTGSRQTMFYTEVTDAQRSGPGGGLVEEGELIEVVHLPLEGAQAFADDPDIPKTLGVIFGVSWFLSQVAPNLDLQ

T2: Porcine UGPPase (Sus scrofa, UniProt Q865Y9)
T2 construct: Fresh porcine kidney, 3.6-kg of weight, was homogenized; from tissue; host or cells: porcine kidney
T2 sequence (Q865Y9 1-222): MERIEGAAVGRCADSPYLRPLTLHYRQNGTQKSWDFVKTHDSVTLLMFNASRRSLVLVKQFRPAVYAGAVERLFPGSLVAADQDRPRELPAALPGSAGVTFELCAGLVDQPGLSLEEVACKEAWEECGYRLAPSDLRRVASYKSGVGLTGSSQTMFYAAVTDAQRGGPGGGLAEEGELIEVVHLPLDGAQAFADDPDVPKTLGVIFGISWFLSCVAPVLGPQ

B1: hUGPPase His-tag fusion protein: His-tagged hUGPPase expressed from pET-19b AAD15563.1 in E. coli, purified; ELISA standard (protein)
chain: MGLLLPLPVPGLLLLEAETHPHFPCNHGQEGACTRHARVRAYPGPLVHRRKRPAWLWELAAPACPGAAMERIEGASVGRCAASPYLRPLTLHYRQNGAQKSWDFMKTHDSVTVLLFNSSRRSLVLVKQFRPAVYAGEVERRFPGSLAAVDQDGPRELQPALPGSAGVTVELCAGLVDQPGLSLEEVACKEAWEECGYHLAPSDLRRVATYWSGVGLTGSRQTMFYTEVTDAQRSGPGGGLVEEGELIEVVHLPLEGAQAFADDPDIPKTLGVIFGVSWFLSQVAPNLDLQ
modifications: left off: small tags and cut ends
notes: His-tagged hUGPPase expressed from pET-19b AAD15563.1 in E. coli, purified; ELISA standard
B2: human UGPPase: recombinant protein AAD15563.1 (SEQ ID NO:2) expressed in E. coli AD494(DE3), final MonoP-purified product (protein, listed as Homo sapiens)
chain: MERIEGASVGRCAASPYLRPLTLHYRQNGAQKSWDFMKTHDSVTVLLFNSSRRSLVLVKQFRPAVYAGEVERRFPGSLAAVDQDGPRELQPALPGSAGVTVELCAGLVDQPGLSLEEVACKEAWEECGYHLAPSDLRRVATYWSGVGLTGSRQTMFYTEVTDAQRSGPGGGLVEEGELIEVVHLPLEGAQAFADDPDIPKTLGVIFGVSWFLSQVAPNLDLQ
modifications: USPPase

Legend:
[1] = target: T1, human UGPPase; assay: UGPPase activity measurement (G1P produced, coupled NADH read-out), substrate specificity and UDPG dependence, human recombinant enzyme; type: biochemical; conditions: 5 mM of corresponding substrate, UDPG = 100%
Procedure: (§1) UGPPase activity is defined based on the amount of G1P produced by the enzyme. The measurement is carried in two-step reactions according to the method reported by Rodriguez-Lopez et al. (11). In the first reaction, 50 μl of the reaction mixture consisting of a sample containing UGPPase, 0-20 mM concentration of a sugar nucleotide (UDP-, ADP- or GDP-glucose)(SIGMA), 20 mM MgCl2, and 50 mM Tris-HCl (pH 9.0), and the mixture is incubated at 37° C. for 30 minutes. As a blank, the same sample that has been boiled for two minutes to inactivate UGPPase is used. After the incubation period, the reaction is terminated by a two-minute boiling, and the mixture centrifuged at 20,000 g for 10 minutes at 4° C.
(§2) The reaction mixture is placed in a 96-well FluoroNunc™ plate (NUNC) and incubated at 37° C. for 10 minutes. This second reaction produces an equimolar amount of NADH to that of G1P produced in the first reaction. The amount of NADH is determined by measuring OD at 340 nm using a microplate reader (MOLECULAR DEVICE).
(§3) The activity was calculated as follows: 1U=[a]/30/0.03 where [a]is the amount in μmol of NADH produced in the reaction.
(§4) The above conditions of the first reaction were modified according to the purpose of each of the test, as specifically indicated below.

[2] = target: T2, Porcine UGPPase; assay: UGPPase activity measurement (G1P produced, coupled NADH read-out), substrate specificity and UDPG dependence, porcine enzyme; type: biochemical, pig; conditions: 5 mM of corresponding substrate, UDPG = 100%
Procedure: as §1, §2, §3, §4

[3] = target: rabbit anti-hUGPPase antibody; assay: hUGPPase ELISA; type: binding; conditions: rabbit anti-hUGPPase antibody as solid phase, fusion protein as standard (FIG. 23)
Procedure: The rabbit anti-hUGPPase antibody prepared in (14) above was diluted with 50 mM NaHCO3, pH 9.6 to prepare a 25 μg/ml solution. The solution was added to the wells of a 96-well plate (NUNC), 100 μl each, and incubated at 37° C. for 1 hour for coating. The antibody solution was removed and 300 μl of a blocking buffer [1.0% (w/v) BSA, PBS, 10 mM glycine, pH 7.4] was added to each well and incubated at 37° C. for 1 hour for blocking.
For preparation of a standard, hUGPPase His-tag fusion protein was diluted stepwise to 10 μg/ml-0.1 ng/ml using a dilution buffer [20 mM Tris, 150 mM NaCl, 0.1% (w/v) BSA, pH7.4].
To use as samples, two types of E. coli AD494(DE3) cells, the one with introduced plasmid pET-19b AAD15563.1 and the other with plasmid pET-19b, respectively, were lysed and diluted to 50, 5, 0.5 and 0.05 μg/ml with the dilution buffer. Each well of the plate was removed of the blocking buffer and washed 3 times with 300 μl each of TTBS. To each well was added 100 μl of the standard or the sample solution and an incubation followed at 37° C. for 1 hour.
For detection of hUGPPase His-tag fusion protein, the HRP-conjugated rabbit anti-hUGPPase antibody prepared in (15) was used after dilution to 0.5 μg/ml with the dilution buffer. […] After a 5-min incubation at room temperature, 50 μl of 2M H2SO4 was added to each well to terminate the reaction, and OD at 450 nm was measured.

[4] = Specific activity and optimal pH of purified UGPPase products; type: biochemical; conditions: UGPPase activity
Procedure: as §1, §2, §3, §4

Row | Molecule | % activity with respect to UDPG [1] | % activity with respect to UDPG [2] | EC50 (effecter concentration for half-maximum response) of the ELISA system [3] [µg/mL] | Specific activity of the final purified product [4] [U/mg] | Specific activity of the final purified product ([4]; listed as r-hUGPPase) [U/mg]
1 | Nc1ncnc2c1ncn2[C@@H]1O[C@H](COP(=O)(O)OP(=O)(O)OC[C@H]2OC(O)[C@H](O)[C@@H]2O)[C@@H](O)[C@H]1O (stereo partly shown) [ADP-ribose] | 110% | 95% |  |  | 
2 | Nc1ncnc2c1ncn2[C@@H]1O[C@H](COP(=O)(O)OP(=O)(O)O)[C@@H](O)[C@H]1O [ADP] | bdl | bdl |  |  | 
3 | Nc1ncnc2c1ncn2[C@@H]1O[C@H](COP(=O)(O)O)[C@@H](O)[C@H]1O [AMP, adenosine 5′-monophosphate] | bdl | bdl |  |  | 
4 | Nc1ncnc2c1ncn2[C@@H]1O[C@H](COP(=O)(O)OP(=O)(O)OP(=O)(O)O)[C@@H](O)[C@H]1O [ATP] | bdl | bdl |  |  | 
5 | O=[N+]([O-])c1ccc(OP(=O)(O)Oc2ccc([N+](=O)[O-])cc2)cc1 [Bis-PNPP] | bdl | bdl |  |  | 
6 | Nc1ccn([C@@H]2O[C@H](COP(=O)(O)OP(=O)(O)O[C@H]3O[C@H](CO)[C@@H](O)[C@H](O)[C@H]3O)[C@@H](O)[C@H]2O)c(=O)n1 [CDPG] | 3% | 2% |  |  | 
7 | Nc1nc2c(ncn2[C@@H]2O[C@H](COP(=O)(O)OP(=O)(O)O[C@H]3O[C@H](CO)[C@@H](O)[C@H](O)[C@H]3O)[C@@H](O)[C@H]2O)c(=O)[nH]1 [GDPG, GDP-glucose] | ~10% | ~10% |  |  | 
8 | NC(=O)c1ccc[n+]([C@@H]2O[C@H](COP(=O)([O-])OP(=O)(O)OC[C@H]3O[C@@H](n4cnc5c(N)ncnc54)[C@H](O)[C@@H]3O)[C@@H](O)[C@H]2O)c1 [NAD] | bdl | bdl |  |  | 
9 | O=[N+]([O-])c1ccc(OP(=O)(O)O)cc1 [PNPP] | bdl | bdl |  |  | 
10 | O=C(O)[C@H]1O[C@H](OP(=O)(O)OP(=O)(O)OC[C@H]2O[C@@H](n3ccc(=O)[nH]c3=O)[C@H](O)[C@@H]2O)[C@H](O)[C@@H](O)[C@@H]1O [UDP-glucuronic] | bdl | bdl |  |  | 
11 | O=c1ccn([C@@H]2O[C@H](COP(=O)(O)OP(=O)(O)OP(=O)(O)O)[C@@H](O)[C@H]2O)c(=O)[nH]1 [UTP] | bdl | bdl |  |  | 
12 | B1 |  |  | 0.2468 |  | 
13 | B2 |  |  |  | 6.7 | 6.74
